Laboratory results published in EP0106571A2, “Prophylactic substance or composition” (priority 1982, dated 1984).
Like-named read-outs stand apart in the source and are kept apart here.

System: MG63 osteoid-sarcoma cells
Settings: for Cell count (x 10^6) + GLA Mean: MG63, seeding density 0,3, daily GLA, n = 4
Description: Cells: MG63. osteoid-sarcoma cells were obtained from Flow Laboratories. Oesophageal carcinoma cells were obtained from Prof. J. Alexander of the Department of Microbiology at Medunsa, South Africa. Control benign bovine kidney cells (MDBK) were from the same stock that were used in the previous examples.

With CCCCC/C=C\C/C=C\C/C=C\CCCCC(=O)O [GLA, gamma linolenic acid] the “Cell count (x 10^6) + GLA Mean” value (day 2) was 0,19 x 10^6, the “Cell count (x 10^6) + GLA Mean” value (day 3) was 0,31 x 10^6 and the “Cell count (x 10^6) + GLA Mean” value (day 4) was 0,48 x 10^6. It also gave a growth suppressive effect (MG63 cells, daily GLA supplementation, over seven days, versus untreated MG63 cells, 10080 min) of 76%.
